Assay results from patent publication US20130133650A1, “GAS-BASED TREATMENT FOR INFECTIVE DISEASE” (priority 2010, published 2013).

Key:
[1] = tested on: THP-1 macrophage-like cells; assay: Viability of human macrophage-like cells following anaerobic shock (trypan blue exclusion); assay type: cell-based; settings: uninfected differentiated THP-1 cells, various treatment times (FIG. 3(B))
Protocol: THP-1 cells were grown and induced for differentiation as above. The monolayer of differentiated macrophage-like cells was dispersed by trypsinization, after which cell suspensions were transferred to Vacutainer tubes and shocked with anaerobic gas as described for bacterial cultures. At various times, 20-microliter aliquots of suspended cells (˜10^6 cells/ml) were mixed with an equal volume of Trypan Blue staining solution (0.4% Trypan blue, Sigma Chemicals CO., St. Louis, Mo.)). Total and blue cell numbers were determined by light microscopy using a hemocytometer.
Percent of white (live) cells was plotted relative to an untreated sample.

[2] = rabbit, in vivo
[3] = tested on: M. tuberculosis H37Rv inside THP-1 macrophage-like cells; assay: Anaerobic shock of macrophage-like cells infected with M. tuberculosis, bacterial survival; settings: treatment for the indicated times (FIG. 3(A))
Mycobacterium bovis BCG = settings: cited from earlier work
M. bovis BCG = assay type: cell-based, Mycobacterium bovis BCG; settings: jar flushed with gas, 1-24 hour (FIG. 5)

[Ar] [argon]
macrophage viability (trypan blue exclusion) [1]: slightly reduced viability at long treatment times
side-effect of one-lung anaerobic shock [2]: no obvious side-effect
intracellular bacillary viability [3]: only reduced bacillary viability moderately

NCCN(CCN)/[N+]([O-])=N/O [DETA-NO, diethylene-triamine-nitric oxide adduct]
effect of pretreatment on anaerobic shock-caused cell death (Mycobacterium bovis BCG; pretreatment before anaerobic shock): not blocked
duration of sustained growth arrest (Mycobacterium bovis BCG; single treatment): 72 h

[HH] [hydrogen]
killing of bacteria on agar surface (M. bovis BCG): killed
